The source of these data is article PMC8286840, “Identifying SARS-CoV-2 antiviral compounds by screening for small molecule inhibitors of Nsp3 papain-like protease” (Biochemical Journal, 2021).

SMILES strings stand for the structures. Structures can show the parent of a compound that is named as a salt. Where two headings read alike, the source gives them in different places.

Test [1] addresses T1, SARS-CoV-2 PLpro (nsp3 1564–1878) (Severe acute respiratory syndrome coronavirus 2, UniProt P0DTD1). Kind of test: biochemical. The following applies: low concentration screen, read-out: % of control remaining. Also on record: FRET-quenched peptide (Pro3) cleavage by PLpro, 10 min pre-incubation, slope over 20 min, normalised to no-compound control.
Test [2] addresses T1, SARS-CoV-2 PLpro (nsp3 1564–1878). Kind of test: biochemical. Also on record: FRET-quenched peptide (Pro3) cleavage by PLpro, 10 min pre-incubation, slope over 20 min, normalised to no-compound control. The conditions noted are these: high concentration screen, read-out: % of control remaining.

Turning to `CN1C(=O)CC[C@H]1c1cccnc1` [(-)-Cotinine], the values for the remaining activity at 1.25 µM in test [1] (Well no.=228) and in test [1] (Well no.=3103) were 97.9% and 99.3%, respectively. Also, the remaining activity at 3.75 µM in test [2] (Well no.=228) was found to be 99.4%; in test [2] (Well no.=3103) it was 101%.

With `COc1cccc(-c2cc(=O)c3ccccc3o2)c1N` [PD 98,059], the remaining activity at 1.25 µM in test [1] (Well no.=1457) was 94.9%. The remaining activity at 3.75 µM in test [2] (Well no.=1457) was determined as 95.8%.

Regarding `N=C(NC(=O)c1nc(Cl)c(N)nc1N)Nc1ccccc1` [Phenamil methanesulfonate], in test [1] (Well no.=1313), the remaining activity at 1.25 µM turned out to be 101%. For the same compound, the remaining activity at 3.75 µM in test [2] (Well no.=1313) was found to be 99.6%.

Take `COc1cccc(C(=O)O)c1` [3-Methoxybenzoic acid]: in test [1] (Well no.=6587), the remaining activity at 1.25 µM worked out at 100%. Moreover, the remaining activity at 3.75 µM in test [2] (Well no.=6587) was found to be 98.4%.

In the case of `CCOC(=O)c1c(C)[nH]c(/C=C2\C(=O)Nc3ccccc32)c1C` [VEGF Receptor 2 Kinase Inhibitor I], the remaining activity at 1.25 µM in test [1] (Well no.=2645) worked out at 97.1%. The remaining activity at 3.75 µM in test [2] (Well no.=2645) is 102%.

Turning to `CC(C)[C@H](NC(=O)OCc1ccccc1)C(=O)N[C@@H](CC(=O)O)C(=O)CF` [EP1013], the remaining activity at 1.25 µM in test [1] (Well no.=6886) worked out at 96.4%. Also, in test [2] (Well no.=6886), the remaining activity at 3.75 µM was 96.6%.

On to `N=C(N)NC(=O)c1nc(Cl)c(N)nc1N` [Amiloride], for which the remaining activity at 1.25 µM in test [1] (Well no.=1709) worked out at 102%. The remaining activity at 3.75 µM in test [2] (Well no.=1709) was found to be 99%.

With `CN1CCCCC1CCN1c2ccccc2Sc2ccc([S+](C)[O-])cc21` (centres unmarked) [Mesoridazine besylate], the remaining activity at 1.25 µM in test [1] (Well no.=2110) amounted to 97.7%. The remaining activity at 3.75 µM in test [2] (Well no.=2110) was 99.5%.

Take `O=C1CCC(N2C(=O)c3ccccc3C2=O)C(=O)N1` (centres unmarked) [Thalidomide]: in test [1] (Well no.=2261), the remaining activity at 1.25 µM came to 98.2%. For the same compound, the remaining activity at 3.75 µM in test [2] (Well no.=2261) was 102%.

`CCCCCCCCCCCCCCCCn1cc[n+](Cc2ccccc2)c1C` [NH 125 - 1-Hexadecyl-2-methyl-3-(phenylmethyl)-1H-imidazolium iodide]: the remaining activity at 1.25 µM in test [1] (Well no.=2336) was found to be 97.5%. For the same compound, in test [2] (Well no.=2336), the remaining activity at 3.75 µM came to 97%.

For `O=CN1CC/C(=C\c2ccc3c(c2)OCO3)C1=O` [KNK437], the remaining activity at 1.25 µM in test [1] (Well no.=8768) was determined as 92.1%. Besides, in test [2] (Well no.=8768), the remaining activity at 3.75 µM turned out to be 89.6%.

For `CS(=O)(=O)c1cccc(C[C@H](NC(=O)c2c(Cl)cc3c(c2Cl)CCN(C(=O)c2ccc4ccoc4c2)C3)C(=O)O)c1` [Lifitegrast], in test [1] (Well no.=8038), the remaining activity at 1.25 µM worked out at 94.5%. In addition, the remaining activity at 3.75 µM in test [2] (Well no.=8038) was determined as 95.3%.

In the case of `COc1cc(CC(=O)O)ccc1O` [Homovanillic acid], in test [1] (Well no.=6831), the remaining activity at 1.25 µM was 96.9%. Moreover, the remaining activity at 3.75 µM in test [2] (Well no.=6831) was 97%.

Take `CC1=C[C@]23C(=O)[C@@H](C=C(CO)[C@@H](O)[C@]2(O)[C@H]1O)[C@H]1[C@@H](C[C@H]3C)C1(C)C` [Ingenol]: the remaining activity at 1.25 µM in test [1] (Well no.=3308) was determined as 98.5%. Also, in test [2] (Well no.=3308), the remaining activity at 3.75 µM was determined as 99.1%.

On to `N=C(N)SCCc1ccc(CCSC(=N)N)cc1` [1,4-PBIT dihydrobromide], for which the remaining activity at 1.25 µM in test [1] (Well no.=1255) is 104%. The remaining activity at 3.75 µM in test [2] (Well no.=1255) was found to be 105%.

`O=c1c(O)c(-c2ccccc2O)oc2cc(O)cc(O)c12` [Datiscetin]: the remaining activity at 1.25 µM in test [1] (Well no.=3251) turned out to be 95.3%. Also, the remaining activity at 3.75 µM in test [2] (Well no.=3251) amounted to 96.6%.

`CNCCC(Oc1ccccc1OC)c1ccccc1` (centres unmarked) [Nisoxetine hydrochloride]: the remaining activity at 1.25 µM in test [1] (Well no.=892) was 100%. In addition, the remaining activity at 3.75 µM in test [2] (Well no.=892) amounted to 99.8%.

In the case of `Cn1c(=O)c(-c2c(Cl)cccc2Cl)cc2cnc(Nc3cccc(C(=O)O)c3)nc21` [PD173955-Analog1], the remaining activity at 1.25 µM in test [1] (Well no.=2849) turned out to be 101%. Moreover, the remaining activity at 3.75 µM in test [2] (Well no.=2849) was found to be 99.7%.

For `CCC(=O)OCC(=O)[C@@]1(OC(=O)CC)[C@@H](C)C[C@H]2[C@@H]3CCC4=CC(=O)C=C[C@]4(C)[C@@]3(Cl)[C@@H](O)C[C@@]21C` [Beclometasone dipropionate], in test [1] (Well no.=7615), the remaining activity at 1.25 µM turned out to be 101%. The remaining activity at 3.75 µM in test [2] (Well no.=7615) came to 96.1%.

In the case of `COc1ccc(C2=N[C@H](c3ccc(Cl)cc3)[C@H](c3ccc(Cl)cc3)N2C(=O)N2CCNC(=O)C2)c(OC(C)C)c1` [Nutlin (3b)], the results for the remaining activity at 1.25 µM in test [1] (Well no.=6742) and in test [1] (Well no.=8362) were 100% and 101%, respectively. The remaining activity at 3.75 µM in test [2] (Well no.=6742) turned out to be 100%.

As for `CC(C(=O)O)c1ccccc1` (centres unmarked) [2-Phenylpropionic acid], the remaining activity at 1.25 µM in test [1] (Well no.=6837) worked out at 94.4%. Besides, the remaining activity at 3.75 µM in test [2] (Well no.=6837) came to 95.3%.

As to `CN1CCN(c2ccc3nc(-c4c(N)c5c(F)cccc5[nH]c4=O)[nH]c3c2)CC1` [CHIR-258], in test [1] (Well no.=2757), the remaining activity at 1.25 µM was determined as 96.4%. Moreover, the remaining activity at 3.75 µM in test [2] (Well no.=2757) is 95.3%.

Consider `Cc1c(Cc2ccc3ccccc3n2)c2cc(F)ccc2n1CC(=O)O` [OC000459], for which the remaining activity at 1.25 µM in test [1] (Well no.=7765) turned out to be 108%. Also, the remaining activity at 3.75 µM in test [2] (Well no.=7765) turned out to be 105%.

Regarding `C[C@H](NC(=O)/C(C#N)=C/c1cccc(Br)n1)c1ccccc1` [WP1066], in test [1] (Well no.=4779), the remaining activity at 1.25 µM turned out to be 103%. The remaining activity at 3.75 µM in test [2] (Well no.=4779) came to 99%.

As for `Cc1nn(C)c(COc2ccc(N3CCN(S(=O)(=O)N(C)C)CC3)cc2)c1-c1cccc2c(CCCOc3cccc4ccccc34)c(C(=O)O)n(CCN3CCOCC3)c12` [A-1210477], the remaining activity at 1.25 µM in test [1] (Well no.=6970) came out at 99.5%. Further, the remaining activity at 3.75 µM in test [2] (Well no.=6970) worked out at 101%.

Take `CNc1cccc(NC(=O)N[C@@H]2N=C(c3ccccn3)c3ccccc3N(CC(=O)C(C)(C)C)C2=O)c1` [Sograzepide]: in test [1] (Well no.=8322), the remaining activity at 1.25 µM came out at 94.5%. The remaining activity at 3.75 µM in test [2] (Well no.=8322) was found to be 93%.

For `Oc1ccc2ccccc2c1SSc1c(O)ccc2ccccc12` [p21-Activated Kinase Inhibitor III, IPA-3], in test [1] (Well no.=2525), the remaining activity at 1.25 µM amounted to 99.9%. Moreover, the remaining activity at 3.75 µM in test [2] (Well no.=2525) worked out at 102%.

As for `Nc1ccc(S(N)(=O)=O)cc1` [Sulfanilamide], the values for the remaining activity at 1.25 µM in test [1] (Well no.=4620) and in test [1] (Well no.=7540) were 106% and 94.6%, respectively. Further, the figures for the remaining activity at 3.75 µM in test [2] (Well no.=4620) and in test [2] (Well no.=7540) were 108% and 93.1%, respectively.

As for `C[C@@H]1O[C@@H](O[C@@H]2[C@@H](O)[C@H](O)[C@@H](CO)O[C@H]2c2c(O)cc(O)c3c(=O)cc(-c4ccc(O)cc4)oc23)[C@H](O)[C@H](O)[C@H]1O` [Vitexin-2-O-rhamnoside], the remaining activity at 1.25 µM in test [1] (Well no.=3405) is 91.6%. For the same compound, the remaining activity at 3.75 µM in test [2] (Well no.=3405) was 80.4%.

On to `N[C@@H](Cc1cnc[nH]1)C(=O)N[C@@H](Cc1cnc[nH]1)C(=O)N[C@@H](Cc1cnc[nH]1)C(=O)N[C@@H](Cc1cnc[nH]1)C(=O)N[C@@H](Cc1cnc[nH]1)C(=O)N[C@@H](Cc1cnc[nH]1)C(=O)O` [Hexa-His], for which the remaining activity at 1.25 µM in test [1] (Well no.=8312) stood at 94.5%. Moreover, the remaining activity at 3.75 µM in test [2] (Well no.=8312) was 96.4%.
